US5462861A, “Method for improving enzyme activities with noble gases” (American Air Liquide, Chicago Research Center, priority 1993, dated 1995)
“Also recorded” adds a separate entry of the source.

Experiments:
[1] = tested on: Tyrosinase; assay: Tyrosinase-L-tyrosine reaction, solution saturated with gas; type: biochemical, Mushroom
Protocol: (§1) Solution preparation: Optimized w/v solutions are prepared by diluting the enzyme (units/ml) and the substrate (μg/ml) in appropriate buffer (optimized pH and molarity for enzymes). The solutions are used for gas experiments at once to avoid loss of activity. Various enzyme and substrate concentrations and inhibitors may be employed. Physical parameters are varied as required.
(§2) Preparation of samples: Cuvets are filled with 2 ml of substrate solution by means of a gas-tight syringe. Gas-tight serum vials are filled with enzyme and solvent. Sufficient gas is consecutively bubbled in the cuvets and serum vials, with a 1-hr wait between injections to maximize equilibration of gas. All syringes and dead spaces are purged before filling with the appropriate gas. The amount of gas used has been measured sufficient to saturate the solution required.
(§3) Spectrophotometric time-drive, reaction rate, and kinetic analyses: cuvets and serum vials are saturated with gas 40 minutes before the run. A gas-filled syringe is used to retrieve 0.5 ml of enzyme solution to avoid air contact. The 0.5 ml syringe injections of enzyme are made simultaneously to effect a common starting time to for the samples. 7 gases (air, O2, N2, Ne, Ar, Kr, Xe) are run at various temperatures each (from 0° to 60° ). Changes in the rate or final equilibrium of the reaction versus ambient air are recorded. Comparison is also made with added oxygen, and with deoxygenation. Some samples are also prepared under pressure.
1. Solution preparation: 10% w/v solutions are prepared by diluting the enzyme (units/ml) and the substrate (μg/ml) in Sodium Phosphate buffer (pH 6.85, optimized pH for enzymes). The solutions are stored in refrigerator (0°-5° C.) and used for gas experiments within 2 or 3 days to avoid loss of activity.
6. Preparation of run samples: Acrylic cuvets are filled with 2 ml of substrate solution by means of a gas tight syringe. Gastight serum vials are filled with enzyme. 3×10 cc of gas are consecutively bubbled in the cuvets and serum vials, with a […] between injections. This represents a 10× displacement of dead volume while maximizing equilibration of gas. All syringes and dead spaces are purged before filling with the appropriate gas. After the third 10 cc injection, the cuvets and serum vials are left overnight under two 10 cc syringes filled with the appropriate gas in refrigerator at 0°-5° C.
8. Spectrophotometric runs: The cuvets and serum vials are filled with 10 cc of gas 40 min before the run. A gas-filled syringe is used to retrieve 0.5 ml of enzyme solution to avoid air contact. The 0.5 ml syringe injections of enzyme are made simultaneously to effect a common starting time t0 for the samples. Seven gases (air, O2, N2, Ne, Ar, Kr, Xe) are run at five temperatures each (15° C., 20° C., 25° C., 30° C., 35° C.). Changes in the rate or final equilibrium of the reaction versus ambient air are recorded.
The optimal conditions are [E]/[S] (100 μg/ml)/(100 μg/ml), the changes in absorbance being observed at 305 nm.
3×10 cc of gas are bubbled in the silicone-sealed cuvets and serum vials (T-3754, T-7755), with an interval of 20 min (at 0°-5°C.) between each gas injection.
a. The silicone-sealed cuvets are removed from the refrigerator 40 min before the experimental run, filled with 10 cc of gas and left at room temperature (26° C.) under two 10 cc syringes.
The 0.5 ml syringe injections of enzyme are made simultaneously to effect a common starting time t0 for the samples.
200 points, 18 s intervals 1 hr run

[2] = tested on: phenylalanine ammonia lyase; assay: Phenylalanine ammonia lyase activity under gas; type: biochemical; conditions: FIG. 32
Protocol: as §1, §2, §3
(§4) In a complete experiment, an enzyme at optimal pH and buffering salt concentration is reacted with 5 substrate concentrations in solution with noble gas at 1 atm. […] Controls are also run after evacuation of solution by vacuum. The reaction is monitored colorimetrically in a scanning spectrophotometer in real time, and the signals are treated mathematically to obtain rate and yield differences. Sample numbers are constant and sufficient to ensure significance of results. All parameters are independently controlled and measured, and more complex experiments are occasionally carried out.

[3] = biological target: Phosphoglucose isomerase (Homo sapiens, UniProt P06744); assay: Phosphoglucose isomerase activity under gas; type: biochemical; conditions: 25° C., FIG. 35
Protocol: as §1, §2, §3, §4

[4] = tested on: tyrosinase; assay: Oxygen addition experiment, tyrosinase; type: biochemical
Protocol: as §4

[5] = tested on: glucosidase
Protocol: as §4

[6] = tested on: α-D-glucosidase; assay: α-D-glucosidase activity under gas; type: biochemical; conditions: FIG. 31
Protocol: Solution preparation: Optimized w/v solutions are prepared by diluting the enzyme (units/ml) and the substrate (μg/ml) in appropriate buffer (optimized pH and molarity for enzymes). The solutions are used for gas experiments at once to avoid loss of activity. Various enzyme and substrate concentrations and inhibitors may be employed. Physical parameters are varied as required. […] Gas-tight serum vials are filled with enzyme and solvent. Sufficient gas is consecutively bubbled in the cuvets and serum vials, with a 1-hr wait between injections to maximize equilibration of gas. All syringes and dead spaces are purged before filling with the appropriate gas. The amount of gas used has been measured sufficient to saturate the solution required. Spectrophotometric time-drive, reaction rate, and kinetic analyses: cuvets and serum vials are saturated with gas 40 minutes before the run. A gas-filled syringe is used to retrieve 0.5 ml of enzyme solution to avoid air contact. […] Changes in the rate or final equilibrium of the reaction versus ambient air are recorded. Comparison is also made with added oxygen, and with deoxygenation. Some samples are also prepared under pressure.

[7] = Schreiner; independent of oxygen partial pressure; cited from earlier work
[8] = tested on: particulate sialidase; conditions: Sandhoff et al, FEBS Letters 1976; cited from earlier work

With `O=O` [oxygen, reference compound] the “effect on tyrosinase-L-tyrosine reaction” value ([1]; 15° C.) was “approximately the same effect”, the “effect on tyrosinase-L-tyrosine reaction” value ([1]; 20° C.) was “only a moderate inhibitory effect; also recorded: little effect; also recorded: no enhancing effect; also recorded: does not enhance” and the “effect on tyrosinase-L-tyrosine reaction” value ([1]; 30° C.) was “inhibitory effect; also recorded: no longer enhances; also recorded: no enhancing effect”. For the same compound, the “temperature dependence of the effect on tyrosinase” value ([1]; various temperatures (15-35° C.)) was “curves obtained with oxygen instead of air are identical; also recorded: saturates at 30 °C”, the “effect on phenylalanine ammonia-lyase” value [2] was “enhancement” and the “effect on phosphoglucose isomerase” value [3] was “inhibition”. The “effect of oxygen on tyrosinase activity” value ([4]; addition of a small amount oxygen) was “enhanced tyrosinase activity slightly”, the “maximum increase in activity of tyrosinase” value ([4]; addition of oxygen to air) was 6% and the “effect of adding oxygen to glucosidase reactions” value [5] was “no observed effect”. The “effect on α-D-glucosidase” value [6] was “enhancement”.

For `[N-]=[N+]=O` [nitrous oxide], the “inhibition per atmosphere of added gas” value [7] is given as 1.9 % inhibition per atmosphere and the “effect on activity of particulate sialidase” value [8] is given as “enhance the activity”.

For `FC(F)(F)C(Cl)Br` (centres unmarked) [halothane], the “effect on activity of particulate sialidase” value [8] is given as “enhance the activity”.

With `FS(F)(F)(F)(F)F` [SF6, sulfur hexafluoride, reference compound] the “effect on α-D-glucosidase” value [6] was “enhancement”.
